What all share (test): competitive isoTOP-ABPP, MDA-MB-231 soluble proteome
One experiment concerns the target T1, HPCA (Homo sapiens, UniProt P84074).
T1 construct: directly in native proteomes; endogenous in cells; host or cells: MDA-MB-231
Format: binding. The note with it: 100 μM LDE, 60 min; peptide LLQC*DPSSASQF

For the next experiment, the target named is T2, MACROD1 (Homo sapiens, UniProt Q9BQ69).
T2 construct: directly in native proteomes; endogenous in cells; host or cells: MDA-MB-231
T2 sequence (Q9BQ69 1-325): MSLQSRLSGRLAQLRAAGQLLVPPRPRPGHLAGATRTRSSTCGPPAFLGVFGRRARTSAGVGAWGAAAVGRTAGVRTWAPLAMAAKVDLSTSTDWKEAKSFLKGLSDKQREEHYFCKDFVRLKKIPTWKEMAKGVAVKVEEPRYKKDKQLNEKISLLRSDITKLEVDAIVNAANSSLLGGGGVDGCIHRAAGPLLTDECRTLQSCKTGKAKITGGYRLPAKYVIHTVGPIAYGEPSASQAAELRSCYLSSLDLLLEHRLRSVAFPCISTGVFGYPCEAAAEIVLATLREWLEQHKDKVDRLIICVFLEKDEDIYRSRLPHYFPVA
Format: binding. The note with it: 100 μM LDE, 60 min; peptide LEVDAIVNAANSSLLGGGGVDGC*IHR.

A further experiment addresses T3, REEP5 (Homo sapiens, UniProt Q00765).
T3 construct: directly in native proteomes; endogenous in cells; host or cells: MDA-MB-231
Format: binding. As to conditions: 100 μM LDE, 60 min; peptide NC*MTDLLAK.

The target of another experiment is T4, WDR45L (Homo sapiens, UniProt Q5MNZ6).
T4 construct: directly in native proteomes; endogenous in cells; host or cells: MDA-MB-231
T4 sequence (Q5MNZ6 whole entry): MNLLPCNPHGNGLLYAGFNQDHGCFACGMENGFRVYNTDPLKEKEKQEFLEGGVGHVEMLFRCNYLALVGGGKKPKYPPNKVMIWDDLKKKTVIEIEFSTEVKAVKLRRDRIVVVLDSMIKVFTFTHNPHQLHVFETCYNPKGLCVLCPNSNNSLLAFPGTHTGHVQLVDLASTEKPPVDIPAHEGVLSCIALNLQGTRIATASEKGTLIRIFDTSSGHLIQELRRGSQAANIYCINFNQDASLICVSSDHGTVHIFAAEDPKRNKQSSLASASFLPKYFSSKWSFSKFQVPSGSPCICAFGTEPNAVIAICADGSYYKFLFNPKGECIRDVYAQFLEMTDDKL
Format: binding. As to conditions: 100 μM LDE, 60 min; peptide C*NYLALVGGGK

The next experiment relates to AHSG. Format: binding, human. As to conditions: 100 μM LDE, 60 min; peptide C*DSSPDSAEDVR
How it is done: (§1) Here, we envisioned that isoTOP-ABPP could be advanced to discover and quantify reactions between cysteines in proteomes and any electrophilic compound. In this advanced, ‘competitive’ version of isoTOP-ABPP (FIG. 1a), a proteome is treated with an electrophile (experimental sample) or DMSO (control sample). Both proteomic samples are then labeled with the IA probe and conjugated by CuAAC to light and heavy azide-biotin tags, respectively. The light and heavy samples are then mixed and subjected to our described isoTOP-ABPP protocol for enrichment, identification, and quantification of IA-labeled cysteines^30. Electrophile-modified cysteines are quantified by measuring the MS1 chromatographic peak ratios (R values) for heavy (DMSO-treated) over light (electrophile-treated) samples, with higher R values reflecting greater sensitivity to the electrophile. In this format, competitive isoTOP-ABPP can assay electrophiles against 1000+ cysteines in parallel directly in native proteomes without requiring any chemical modification to the electrophiles themselves.
(§2) Competitive isoTOP-ABPP experiments were performed in quadruplicate using the soluble proteome of the human breast cancer cell line MDA-MB-231 cell line. Proteomes were treated with 100 μM HNE, 15d-PGJ2, or 2-HD, for 60 minutes, followed by the IA-probe (100 μM, 60 min) A total of ˜1400 cysteine reactivities were quantified across the aggregate data set, with at least 900 cysteine reactivities quantified for each LDE (FIG. 2a) more than 750 of which were quantified for all the three electrophiles.
HNE was purchased from EMD biosciences, 15d-PGJ2 was purchased from Cayman Chemicals and 2-HD was purchased from Santa Cruz Biotechnology. Proteome samples were diluted to a 4 mg protein/mL solution in PBS. […]
IA-probe labeled peptides were identified by SEQUEST2 and DTASelect3, and the quantification of heavy/light ratios (isoTOP-ABPP ratios, R) was performed by an in-house software (CIMAGE) as previously described. […]

In a further experiment the target is ZAK (Homo sapiens, UniProt Q9NYL2). Format: binding. As to conditions: 60 min; for R value (isoTOP-ABPP ratio heavy/light) for IA-labeled cysteine of ZAK: 100 μM LDE, peptide FDDLQFFENC*GGGSFGSVYR
Sequence of ZAK (Q9NYL2 whole entry): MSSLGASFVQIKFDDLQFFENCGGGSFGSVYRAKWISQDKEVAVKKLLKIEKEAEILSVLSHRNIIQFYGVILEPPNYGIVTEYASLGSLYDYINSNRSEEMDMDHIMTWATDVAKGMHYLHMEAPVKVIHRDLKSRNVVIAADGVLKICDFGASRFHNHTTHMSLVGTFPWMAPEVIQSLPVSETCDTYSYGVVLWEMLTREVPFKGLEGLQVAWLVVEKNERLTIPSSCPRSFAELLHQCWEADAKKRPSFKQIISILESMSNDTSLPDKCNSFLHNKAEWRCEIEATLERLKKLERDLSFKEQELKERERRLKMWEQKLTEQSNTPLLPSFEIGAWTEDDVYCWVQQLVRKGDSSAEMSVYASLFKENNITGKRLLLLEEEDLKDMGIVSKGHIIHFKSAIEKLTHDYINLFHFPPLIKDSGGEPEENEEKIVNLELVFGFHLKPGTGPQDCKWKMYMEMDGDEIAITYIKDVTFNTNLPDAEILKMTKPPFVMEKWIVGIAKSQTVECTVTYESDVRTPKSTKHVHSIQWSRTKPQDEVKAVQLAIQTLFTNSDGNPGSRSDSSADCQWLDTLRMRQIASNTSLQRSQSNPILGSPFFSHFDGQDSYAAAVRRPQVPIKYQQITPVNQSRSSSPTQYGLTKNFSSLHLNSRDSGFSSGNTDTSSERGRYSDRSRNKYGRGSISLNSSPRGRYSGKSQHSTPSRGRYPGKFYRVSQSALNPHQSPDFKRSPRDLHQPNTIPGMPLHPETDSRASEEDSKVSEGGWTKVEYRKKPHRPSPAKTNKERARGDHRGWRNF
Further details: directly in native proteomes; endogenous in cells; host or cells: MDA-MB-231. How it is done: as §1, §2
The MDA-MB-231 cell proteome was treated with varying concentrations of HNE (5, 10, 50, 100 and 500 μM) for 60 min and then the IA-labeling profile of each reaction was quantitatively compared to a DMSO-control sample by isoTOP-ABPP.
HNE was purchased from EMD biosciences, 15d-PGJ2 was purchased from Cayman Chemicals and 2-HD was purchased from Santa Cruz Biotechnology. Proteome samples were diluted to a 4 mg protein/mL solution in PBS. For each profiling experiment, one aliquot of the proteome sample (0.5 mL) was treated with 100 μM of LDE using 5 μL of a 10 mM stock and the other aliquot was treated with 5 μL of either ethanol (for HNE and 15d-PGJ2) or DMSO (for 2-HD) as control. For the concentration-dependent profiling experiments using HNE, aliquots of the proteomes (0.5 mL each) were treated with 5, 10, 50, 100 and 500 μM of HNE using 5 μL of 0.5, 1.0, 5, 10 and 50 mM of stock solution, respectively. After 60 minutes of treatment at room temperature, both the LDE-treated and control aliquots were passed through a NAP-5 Sephadex column (GE healthcare) to remove any unreacted LDE. The volume of each aliquot was increased to 1 mL with the concentration at 2 mg/mL after this step. […]

T3 sequence (Q00765 whole entry): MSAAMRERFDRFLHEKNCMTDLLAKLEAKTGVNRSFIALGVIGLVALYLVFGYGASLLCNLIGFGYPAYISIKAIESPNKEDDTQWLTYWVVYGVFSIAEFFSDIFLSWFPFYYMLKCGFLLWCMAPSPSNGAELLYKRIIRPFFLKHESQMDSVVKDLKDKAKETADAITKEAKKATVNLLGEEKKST

`CCCCCCCCCCCCC/C=C/C=O` [2-HD, 2-trans-hexadecenal]: on HPCA, the “R value (isoTOP-ABPP ratio heavy/light) for IA-labeled cysteine of HPCA” value worked out at 1.13. Moreover, at MACROD1, the “R value (isoTOP-ABPP ratio heavy/light) for IA-labeled cysteine of MACROD1” value is given as 1.02. On REEP5, the “R value (isoTOP-ABPP ratio heavy/light) for IA-labeled cysteine of REEP5” value came out at 1.18. Moreover, at WDR45L, the “R value (isoTOP-ABPP ratio heavy/light) for IA-labeled cysteine of WDR45L” value is 1.06. Also, the “R value (isoTOP-ABPP ratio heavy/light) for IA-labeled cysteine of AHSG” value in the experiment with AHSG is 1.12. In addition, the “R value (isoTOP-ABPP ratio heavy/light) for IA-labeled cysteine of ZAK” value (“R value (isoTOP-ABPP ratio heavy/light) … of ZAK” below) at ZAK came out at 1.05.
As for `CCCCCC(O)/C=C/C=O` (stereo not shown) [4-HNE, 4-Hydroxynonenal], on HPCA, the “R value (isoTOP-ABPP ratio heavy/light) for IA-labeled cysteine of HPCA” value was 2.17. At MACROD1, the “R value (isoTOP-ABPP ratio heavy/light) for IA-labeled cysteine of MACROD1” value is 1.56. At REEP5, the “R value (isoTOP-ABPP ratio heavy/light) for IA-labeled cysteine of REEP5” value was 7.08. The “R value (isoTOP-ABPP ratio heavy/light) for IA-labeled cysteine of WDR45L” value on WDR45L is 3.34. The “R value (isoTOP-ABPP ratio heavy/light) for IA-labeled cysteine of AHSG” value with AHSG amounted to 1.35. Moreover, the “R value (isoTOP-ABPP ratio heavy/light) … of ZAK” value on ZAK is on record as more than 15. Further, the “blockade of IA-probe labeling of Cys22 of ZAK” value at ZAK (100 μM) was “completely blocked”.
As for `CCCCC/C=C/C=C1/C(=O)C=C[C@@H]1C/C=C\CCCC(=O)O` [PGJ2, 15-deoxy-Δ12,14-prostaglandin J2], the “R value (isoTOP-ABPP ratio heavy/light) for IA-labeled cysteine of HPCA” value on HPCA was determined as 7.21. Further, on MACROD1, the “R value (isoTOP-ABPP ratio heavy/light) for IA-labeled cysteine of MACROD1” value is 7.65. Further, on REEP5, the “R value (isoTOP-ABPP ratio heavy/light) for IA-labeled cysteine of REEP5” value was determined as 7.38. Moreover, the “R value (isoTOP-ABPP ratio heavy/light) for IA-labeled cysteine of WDR45L” value at WDR45L turned out to be 6.45. For the same molecule, in the experiment with AHSG, the “R value (isoTOP-ABPP ratio heavy/light) for IA-labeled cysteine of AHSG” value stood at 5.73. Moreover, at ZAK, the “R value (isoTOP-ABPP ratio heavy/light) … of ZAK” value was 4.24.

Values taken from US10782295B2, “Cysteine-reactive ligand discovery in proteomes” (THE SCRIPPS RESEARCH INSTITUTE, priority 2013, dated 2020).
